Laboratory results as given in patent US8791099B2, “Transition metal complexes of corroles for preventing cardiovascular diseases or disorders” (Technion Research and Development Foundation Ltd., priority 2007, dated 2014).

What was measured:
[1] = Oxidation of DMSO to formaldehyde by peroxynitrite; settings: pH 7.4, T=25°C, yield relative to [PN]0; PN alone 11.5%
Method: The final pH of the solutions was 7.4 and the temperature was maintained at 24° C. After 5 min of stirring, a 0.3 ml NaOH solution (7.8 M) was added to each tube for analyzing the amount of formed formaldehyde. This was immediately followed by supplying the tubes with 0.3 mL of 34.2 mM Purpald® (a color forming reagent for the determination of aldehydes; Aldrich Chemical Co.) in 480 mM HCl; and a second incubation with continuous shaking was performed for 10 min at 24° C. The thus obtained reaction product between formaldehyde and Purpald® was oxidized to a colored compound by the addition of 0.3 mL 470 mM KIO4 in 470 mM NaOH. The absorbance at 550 nm was measured with a spectrophotometer and the amount of formaldehyde was determined by using a standard curve obtained from formaldehyde solutions of known concentrations (a linear curve was obtained by drawing final O.D. at 550 nm versus initial formaldehyde concentrations).
These particular molecules were specifically chosen because they represent targets of hydroxyl radical, nitrogen dioxide, and of oxygen transfer reagents. In addition, their reaction products are easily identified and quantified by established methods.

[2] = Oxidation of DMSO by copper sulfate/ascorbate; settings: CuSO4/ascorbate as initiator; 50 μM corrole, 18 hr
Method: Reaction was initiated by adding a mixture of CuSO4 and phenanthroline (final concentration of 8 μM for each), followed by sodium ascorbate (500 μM). […]
Additional experiments were carried out by using CuSO4/ascorbate as the initiator of reactive oxygen species (by the complex Fenton-type oxidation that produces hydroxyl radical via the involvement of superoxide anion radical and hydrogen peroxide), as to bridge between the results of the small molecules and those obtained by oxidation of LDL.

LDL [3] = assay: Interaction of LDL with corroles (absorbance before/after dialysis); type: binding, human; settings: 10 μM corrole, 100 mg LDL protein/L (0.2 μM), dialyzed against PBS
Method: The solutions where extensively dialyzed against PBS, and the electronic spectrum was measured again. The difference in the absorbance can be used to calculate the number of corrole molecules bound to LDL [HDL].
Possible interactions between the corroles and LDL were investigated prior to the examinations of the effect of the corroles on LDL oxidation. This was performed by recording the absorbance spectrum of 10 μM aqueous corrole solutions before and after addition of 100 mg of LDL protein/L (corresponding to a molar concentration of 0.2 μM). […] This large number is quite reasonable since the LDL particle is very large and may not encompass specific binding sites, but rather the amphiphilic nature of the examined corroles renders them ideal for positioning in the phospholipid monolayer of the LDL, with the hydrophilic head groups sticking out toward the aqueous phase, as previously proposed for amphiphilic porphyrins (Camejo et al., 1998; Bonneau et al., 2004). In any case, no corrole is expected to be free in solution at the maximal corrole concentration used in the forthcoming experiments, namely, 5 μM per 100 mg of LDL protein/L (about 25 corrole molecules per LDL particle).

LDL [4] = assay: Oxidation of LDL by copper sulfate; type: biochemical, human; settings: for Increased damage (TBARS): corrole 0.5 μM
Method: (§1) Oxidation was initiated by addition of a freshly prepared CuSO4 solution (5 μM) and incubation at 37° C. under air in a shaking water bath was continued for 2 h (LDL) or 5 h (HDL). Lipoprotein oxidation was determined by measuring the amount of TBARS (Aviram et al. 2001).
(§2) Conjugated dienes formation was continuously monitored for 165 min while TBARS and lipid peroxides (Aviram et al. 2001) were measured after 15, 30, 45, 60, 75, 90, 120 and 165 minutes.
The more commonly used copper-induced LDL oxidation protocol was also applied. […] This may be appreciated from FIGS. 3A-3C, which show the time course of stepwise formation of conjugated dienes, hydroperoxides, and aldehydes (2.5 μM of metal corrole). […] The total amount of hydroperoxides rapidly reached a maximum at 45 min (due to its subsequent transformation to the final aldehyde products) and the total concentration of aldehydes was increased by a factor of 3 relative to the control experiment. […] Similar results were obtained for HDL oxidation.
The dependence of LDL oxidation on the corrole concentration was examined by analyses performed 2 hours after oxidation initiation by the copper ion (FIG. 4A).

HDL = assay: Oxidation of HDL by copper sulfate; type: biochemical, human; settings: for Effect on conjugated dienes formation in HDL: 2.5 μM corrole, 5 μM CuSO4
Method: as §1, §2
The results for the copper-induced oxidation of HDL were very similar to the results obtained for LDL. […] It should be mentioned that the damage measured for HDL is lower than that measured for LDL, due to the lower lipid content of HDL.

J-774 macrophages = assay: Corrole-mediated cholesterol efflux from J-774 macrophages; type: cell-based, Murine; settings: lipoprotein-free medium, 10, 25 or 50 μM, 4 hour, dose-dependent
Method: Murine J-774 cells (1×10^6/mL) were plated in 24-well plates for 24 hours, then washed and incubated for 1 hour in serum-free DMEM that contained ^3H-cholesterol (2 μCi/mL) and BSA (0.2%). […] After a 4-hour incubation at 37° C. to permit efflux of ^3H-cholesterol from the cells into the medium, 500 μL of the medium was collected. The cells were washed with PBS, 1 mL of 0.1 N NaOH was added to the cells and 500 μL was collected the next day. Medium and cellular ^3H-cholesterol were determined by liquid scintillation counting (LSC). […] Corrole-mediated cholesterol efflux was calculated after subtraction of the non-specific efflux obtained in cells incubated in the absence of corroles.
A still further indication for a favorable alteration of cellular cholesterol transport by metallocorroles was obtained by studying cholesterol efflux from J-774 macrophages in a lipoprotein-free medium. The iron complex (but not the manganese and gallium complexes) of corrole 1 increased the cholesterol efflux by up to 20% in a dose-dependent fashion.

[5] = system: Apolipoprotein E deficient mice (E^0 mice); assay: Histopathology of aortic atherosclerosis lesions in E^0 mice; type: in vivo; settings: oral, drinking water 0.04 mM (0.2 mg per mouse per day), 10 weeks; for Decrease in average lesion area relative to the control group: 1-Fe: mean of the four mice with lesions
Text: At the end of the experiment, the mice were sacrificed and each heart and entire aorta were rapidly dissected out from each mouse and immersion-fixed in 3% glutaraldehyde in 0.1 mol/L sodium cacodylate buffer with 0.01% calcium chloride, pH 7.4, at room temperature. The first 4 mm of the aortic arch was stained with osmium tetroxide, which colors all the lipid components a dark brown-black color thus enabling delineation of the lesion with greater accuracy. The blocks were embedded in epon resin and thin transverse sections were cut to allow greater resolution of the lesion details. The area covered by the lesion was determined by image analysis (Coleman et al., 2006).
Two of the mice receiving that treatment did actually not develop atherosclerotic lesions at all and the average lesion area for the other four mice was 60% smaller than that obtained for the control mice. These observations are much better than those obtained by other methods, including E^0 mice that were treated by natural anti-oxidants (48% reduction when consuming red wine (Hayek et al., 1997; Fuhrman et al., 1995) and 44% for pomegranate juice (Aviram et al., 2000)) or those that were intraperitoneally-treated with different synthetic catalysts for decomposition of reactive oxygen species.

| Compound | Yield of formaldehyde from DMSO [1] | Inhibition of the oxidation of DMSO to malonaldehyde [2] | Decrease of absorbance after dialysis (LDL [3]) | Aldehydes formation after 24 hours (LDL [4]; 2.5 μM corrole, 5 μM CuSO4) | Damage by all three criteria (conjugated dienes, hydroperoxides, aldehydes) (LDL [4]; 2.5 μM corrole, 5 μM CuSO4) | Fold by which the manganese porphyrin concentration for 100% inhibition exceeds the 1-Fe concentration for full inhibition (LDL [4]; 100 μM vs 2.5 μM) | Concentration giving full inhibition of LDL oxidation (LDL [4]; copper-induced LDL oxidation) | Increased damage (TBARS) (LDL [4]; 2 hours after CuSO4) | Effect on TBARS formation (LDL [4]; corrole 2.5 μM and higher, 2 hours after CuSO4) | Effect on conjugated dienes formation in HDL (HDL) | Effect on TBARS formation in HDL (HDL; corrole 2.5 μM and higher, 5 hr after CuSO4) | Increase of cholesterol efflux from J-774 macrophages (J-774 macrophages) | Increase of cholesterol efflux from J-774 macrophages (J-774 macrophages; listed as iron complex) | Mice (of six) that did not develop atherosclerotic lesions at all [5] | Decrease in average lesion area relative to the control group [5] | Factor of increase of total concentration of aldehydes relative to control (LDL [4]; 2.5 μM corrole, 5 μM CuSO4) | Time at which total hydroperoxides reached a maximum (LDL [4]; 2.5 μM corrole, 5 μM CuSO4) | Delay in formation of conjugated dienes (LDL [4]; 2.5 μM corrole, 5 μM CuSO4, control 30 minutes) | Increase of TBARS formation in HDL (HDL; all concentrations measured, 5 hr after CuSO4) |
| --- | --- | --- | --- | --- | --- | --- | --- | --- | --- | --- | --- | --- | --- | --- | --- | --- | --- | --- | --- |
| O=S(=O)(O)c1cc2[n]3c1C(c1c(F)c(F)c(F)c(F)c1F)=C1C=CC4=[N+]1[Fe-]31[n]3c(cc(S(=O)(=O)O)c3-2)C(c2c(F)c(F)c(F)c(F)c2F)=c2ccc([n]21)=C4c1c(F)c(F)c(F)c(F)c1F (centres unmarked) [1-Fe, 5,10,15-tris(pentafluorophenyl)-2,17-bis(sulfonic acid)-corrolato iron(III)] | 0% | completely | 10% | no aldehydes were formed | practically no damage | 40 fold | 2.5 µM | minor increase in TBARS | complete inhibition | completely eliminated their formation | protective effect | increases | up to 20% | Two and two | 60% | – | – | – | – |
| O=S(=O)(O)c1cc2[n]3c1C(c1c(F)c(F)c(F)c(F)c1F)=C1C=CC4=[N+]1[Mn-]31[n]3c(cc(S(=O)(=O)O)c3-2)C(c2c(F)c(F)c(F)c(F)c2F)=c2ccc([n]21)=C4c1c(F)c(F)c(F)c(F)c1F (centres unmarked) [1-Mn, 5,10,15-tris(pentafluorophenyl)-2,17-bis(sulfonic acid)-corrolato manganese(III)] | 0% | 65% | 20% | – | – | – | – | about 150% | – | shortened the delay time | – | not | – | – | 17% | 3 | 45 min | 15 min | about 2 folds |
